Results as given in US8003666B2, “Hydrate for medical purposes” (priority 2006, dated 2011).
Values after ≈ are worked out from the molar mass of the structure shown.

Columns and labels:
S. aureus, 87037 = assay: Antibacterial activity MIC, Japanese Society of Chemotherapy standard procedure; settings: Staphylococcus aureus
E. coli NIHJ = assay: as above; settings: Escherichia coli
E. faecalis, ATCC 19433 = assay: as above; settings: Enterococcus faecalis, ATCC19433
S. pneumoniae, J24 = assay: as above; settings: Streptococcus pneumoniae
S. epidermidis, 56500 = assay: as above; settings: Staphylococcus epidermidis
S. marscecens, 10100 = assay: as above
P. aeruginosa, 32121 = assay: as above; settings: Pseudomonas aeruginosa
S. aureus, 209P = assay: as above; settings: Staphylococcus aureus
P. vulgaris, 08601 = assay: as above; format: cell-based; settings: Proteus vulgaris
P. aeruginosa, 32104 = assay: as above; settings: Pseudomonas aeruginosa
[1] = Crystal stability on storage at controlled relative humidity; format: physicochemical; settings: 25° C., 3 days
Method: Weight change and crystalline form were examined as to 7-[(7S)-7-amino-7-methyl-5-azaspiro[2.4]heptan-5-yl-6-fluoro-1-[(1R,2S)-2-fluorocyclopropyl]-8-methoxy-1,4-dihydro-4-oxoquinoline-3-carboxylic acid hemihydrate obtained in Example 1 by being stored under the condition of 0, 52 or 93% of relative humidity, at 25° C. for 3 days. The crystalline form was evaluated by measuring with powder X-ray diffraction and thermal analysis.

[2] = Moisture sorption and desorption behavior; format: physicochemical; settings: atmospheric pressure type automatic water vapor adsorption device; FIG. 5
Source text: Moisture sorption and desorption behavior was examined with an atmospheric pressure type automatic water vapor adsorption device for 7-[(7S)-7-amino-7-methyl-5-azaspiro[2.4]heptan-5-yl]-6-fluoro-1-[(1R,2S)-2-fluorocyclopropyl]-8-methoxy-1,4-dihydro-4-oxoquinoline-3-carboxylic acid hemihydrate obtained in Example 1.

[3] = Change in moisture sorption and desorption after thermal dehydration; format: physicochemical; settings: thermal dehydration (60° C.); FIG. 6
Method: Change in moisture sorption and desorption after thermal dehydration (60° C.) was examined for 7-[(7S)-7-amino-7-methyl-5-azaspiro[2.4]heptan-5-yl]-6-fluoro-1-[(1R,2S)-2-fluorocyclopropyl]-8-methoxy-1,4-dihydro-4-oxoquinoline-3-carboxylic acid hemihydrate obtained in Example 1.

E. coli E77156 strain = assay: Therapeutic efficacy in rat simple cystitis model (E. coli); format: in vivo; settings: orally once at 5, 20 and 80 mg/kg on the next day of infection, in comparison with the count at beginning of the treatment, FIG. 2
[4] = Change in crystalline form after thermal dehydration; format: physicochemical; settings: X-ray diffraction on thermal treatments; FIG. 7
Source text: Change in crystalline form by thermal treatment was examined for 7-[(7S)-7-amino-7-methyl-5-azaspiro[2.4]heptan-5-yl]-6-fluoro-1-[(1R,2S)-2-fluorocyclopropyl]-8-methoxy-1,4-dihydro-4-oxoquinoline-3-carboxylic acid hemihydrate obtained in Example 1.

[5] = format: physicochemical
Method: 7-[(7S)-7-amino-7-methyl-5-azaspiro[2.4]heptan-5-yl]-6-fluoro-1-[(1R,2S)-2-fluorocyclopropyl]-8-methoxy-1,4-dihydro-4-oxoquinoline-3-carboxylic acid hemihydrate obtained in Example 1 was each stored for 2 weeks under wet heat condition (40° C., 75% RH), dry heat condition (50° C., of 0% RH) and photo irradiation condition.

[6] = system: Mycobacterium tuberculosis (sensitive bacteria); assay: Anti-mycobacterium tuberculosis activity MIC, sensitive bacteria; format: cell-based

O=C(O)c1cn(C2CC2)c2cc(N3CCNCC3)c(F)cc2c1=O [CPFX, ciprofloxacin]
MIC (S. aureus, 87037): > 6.25 µg/mL | MIC (E. coli NIHJ): ≤ 0.003 µg/mL | MIC (E. faecalis, ATCC 19433): 0.78 µg/mL (≈ 2.35 µM) | MIC (S. pneumoniae, J24): 0.39 µg/mL (≈ 1.18 µM) | MIC (S. epidermidis, 56500): 0.2 µg/mL (≈ 0.604 µM) | MIC (S. marscecens, 10100): 0.025 µg/mL (≈ 0.0754 µM) | MIC (P. aeruginosa, 32121): 0.025 µg/mL (≈ 0.0754 µM) | MIC (S. aureus, 209P): 0.1 µg/mL (≈ 0.302 µM) | MIC (P. vulgaris, 08601): ≤ 0.003 µg/mL | MIC (P. aeruginosa, 32104): 0.05 µg/mL (≈ 0.151 µM)

COc1c(N2CCNC(C)C2)c(F)cc2c(=O)c(C(=O)O)cn(C3CC3)c12 (centres unmarked) [GTFX, gatifloxacin]
MIC (S. aureus, 87037): 1.56 µg/mL (≈ 4.16 µM) | MIC (E. coli NIHJ): 0.006 µg/mL (≈ 0.016 µM) | MIC (E. faecalis, ATCC 19433): 0.39 µg/mL (≈ 1.04 µM) | MIC (S. pneumoniae, J24): 0.2 µg/mL (≈ 0.533 µM) | MIC (S. epidermidis, 56500): 0.2 µg/mL (≈ 0.533 µM) | MIC (S. marscecens, 10100): 0.1 µg/mL (≈ 0.266 µM) | MIC (P. aeruginosa, 32121): 0.1 µg/mL (≈ 0.266 µM) | MIC (S. aureus, 209P): 0.05 µg/mL (≈ 0.133 µM) | MIC (P. vulgaris, 08601): 0.006 µg/mL (≈ 0.016 µM) | MIC (P. aeruginosa, 32104): 0.2 µg/mL (≈ 0.533 µM)

COc1c(N2CC3(CC3)[C@](C)(N)C2)c(F)cc2c(=O)c(C(=O)O)cn([C@@H]3C[C@@H]3F)c12 [Hemihydrate, 7-[(7S)-7-Amino-7-methyl-5-azaspiro[2.4]heptan-5-yl]-6-fluoro-1-[(1R,2S)-2-fluorocyclopropyl]-8-methoxy-1,4-dihydro-4-oxoquinoline-3-carboxylic acid hemihydrate]
MIC (S. aureus, 87037): 0.78 µg/mL | MIC (E. coli NIHJ): 0.025 µg/mL | Weight Change (%) ([1]; 0% RH): 0.00% | Crystalline form after storage ([1]; 0, 52 or 93% relative humidity, powder X-ray diffraction and thermal analysis): the crystalline form did not change | Weight Change (%) ([1]; 52% RH): 0.43% | Weight Change (%) ([1]; 93% RH): 0.61% | MIC (E. faecalis, ATCC 19433): 0.2 µg/mL | Weight change as humidity changes [2]: ≤ 1% | MIC (S. pneumoniae, J24): 0.1 µg/mL | Moisture sorption and desorption after thermal dehydration [3]: rehydrated rapidly after being dehydrated | MIC (S. epidermidis, 56500): 0.1 µg/mL | MIC (S. marscecens, 10100): 0.1 µg/mL | MIC (P. aeruginosa, 32121): 0.2 µg/mL | MIC (S. aureus, 209P): 0.025 µg/mL | MIC (P. vulgaris, 08601): 0.025 µg/mL | Bacterial count in the bladder (E. coli E77156 strain): statistically significant decrease in bacterial count | MIC (P. aeruginosa, 32104): 0.39 µg/mL | Crystalline form after thermal dehydration [4]: had its crystalline state even after being dehydrated | Observation under photo irradiation condition ([5]; photo irradiation condition): color change and some decrease in remaining ratio | Content under wet heat and dry heat condition ([5]; wet heat (40° C., 75% RH) and dry heat (50° C., 0% RH), 2 weeks): stable and its content was not decreased | MIC ([6]; H37RV, strain H37Rv): 0.03 µg/mL | MIC ([6]; strain Kurono): 0.03 µg/mL | MIC ([6]; strain Ravenel): 0.03 µg/mL | MIC ([6]; strain TB-s 2): 0.06 µg/mL | MIC ([6]; strain TB-s 3): 0.06 µg/mL | MIC ([6]; strain TB-s 4): 0.06 µg/mL | MIC ([6]; strain TB-s 5): 0.06 µg/mL | MIC ([6]; strain TB-s 6): 0.06 µg/mL | MIC ([6]; strain TB-s 7): 0.06 µg/mL | MIC ([6]; strain TB-s 8): 0.03 µg/mL | MIC ([6]; strain TB-s 9): 0.06 µg/mL | MIC ([6]; strain TB-s 10): 0.03 µg/mL | MIC ([6]; strain TB-s 11): 0.06 µg/mL | MIC ([6]; strain TB-s 12): 0.125 µg/mL | MIC ([6]; strain TB-s 13): 0.06 µg/mL | MIC ([6]; strain TB-s 14): 0.06 µg/mL | MIC ([6]; strain TB-s 15): 0.06 µg/mL | MIC ([6]; strain TB-s 16): 0.06 µg/mL | MIC ([6]; strain TB-s 17): 0.06 µg/mL | MIC ([6]; strain TB-s 18): 0.06 µg/mL | MIC ([6]; strain TB-s 19): 0.06 µg/mL | MIC ([6]; strain TB-s 20): 0.06 µg/mL | MIC ([6]; strain TB-s 21): 0.06 µg/mL | MIC ([6]; strain TB-s 22): 0.03 µg/mL

C[C@H]1COc2c(N3CCN(C)CC3)c(F)cc3c(=O)c(C(=O)O)cn1c23 [LVFX, levofloxacin]
MIC (S. aureus, 87037): > 6.25 µg/mL | MIC (E. coli NIHJ): 0.012 µg/mL (≈ 0.0332 µM) | MIC (E. faecalis, ATCC 19433): 0.78 µg/mL (≈ 2.16 µM) | MIC (S. pneumoniae, J24): 0.78 µg/mL (≈ 2.16 µM) | MIC (S. epidermidis, 56500): 0.39 µg/mL (≈ 1.08 µM) | MIC (S. marscecens, 10100): 0.1 µg/mL (≈ 0.277 µM) | MIC (P. aeruginosa, 32121): 0.1 µg/mL (≈ 0.277 µM) | MIC (S. aureus, 209P): 0.2 µg/mL (≈ 0.553 µM) | MIC (P. vulgaris, 08601): 0.012 µg/mL (≈ 0.0332 µM) | MIC (P. aeruginosa, 32104): 0.2 µg/mL (≈ 0.553 µM)

CO[C@H]1/C=C/O[C@@]2(C)Oc3c(C)c(O)c4c(O)c(c(/C=N/N5CCN(C)CC5)c(O)c4c3C2=O)NC(=O)/C(C)=C\C=C\[C@H](C)[C@H](O)[C@@H](C)[C@@H](O)[C@@H](C)[C@H](OC(C)=O)[C@@H]1C [RFP, rifampicin]
MIC ([6]; H37RV, strain H37Rv): 0.125 µg/mL (≈ 0.152 µM) | MIC ([6]; strain Kurono): 0.06 µg/mL (≈ 0.0729 µM) | MIC ([6]; strain Ravenel): 0.125 µg/mL (≈ 0.152 µM) | MIC ([6]; strain TB-s 2): 0.03 µg/mL (≈ 0.0365 µM) | MIC ([6]; strain TB-s 3): 0.125 µg/mL (≈ 0.152 µM) | MIC ([6]; strain TB-s 4): 0.06 µg/mL (≈ 0.0729 µM) | MIC ([6]; strain TB-s 5): 0.06 µg/mL (≈ 0.0729 µM) | MIC ([6]; strain TB-s 6): 0.125 µg/mL (≈ 0.152 µM) | MIC ([6]; strain TB-s 7): 0.06 µg/mL (≈ 0.0729 µM) | MIC ([6]; strain TB-s 8): 0.015 µg/mL (≈ 0.0182 µM) | MIC ([6]; strain TB-s 9): 0.06 µg/mL (≈ 0.0729 µM) | MIC ([6]; strain TB-s 10): 0.06 µg/mL (≈ 0.0729 µM) | MIC ([6]; strain TB-s 11): 0.06 µg/mL (≈ 0.0729 µM) | MIC ([6]; strain TB-s 12): 0.125 µg/mL (≈ 0.152 µM) | MIC ([6]; strain TB-s 13): 0.06 µg/mL (≈ 0.0729 µM) | MIC ([6]; strain TB-s 14): 0.03 µg/mL (≈ 0.0365 µM) | MIC ([6]; strain TB-s 15): 0.06 µg/mL (≈ 0.0729 µM) | MIC ([6]; strain TB-s 16): 0.06 µg/mL (≈ 0.0729 µM) | MIC ([6]; strain TB-s 17): 0.06 µg/mL (≈ 0.0729 µM) | MIC ([6]; strain TB-s 18): 0.03 µg/mL (≈ 0.0365 µM) | MIC ([6]; strain TB-s 19): 0.125 µg/mL (≈ 0.152 µM) | MIC ([6]; strain TB-s 20): 0.25 µg/mL (≈ 0.304 µM) | MIC ([6]; strain TB-s 21): 0.03 µg/mL (≈ 0.0365 µM) | MIC ([6]; strain TB-s 22): 0.015 µg/mL (≈ 0.0182 µM)
